What was measured:
mixed neuronal culture = assay: Neuronal LDH release from a mixed neuronal culture following incubation with NMDA; type: cell-based; conditions: peptide at 1 μM; mixed neuronal culture incubated with NMDA
Text: (§1) Despite the neuroprotective effectiveness of early generation apoE-mimetic peptides based on the primary structure of the apoE receptor-binding region, several factors have limited clinical translation. Among those factors are peptide size and production cost. In order to address these barriers, we developed a library of smaller, 5-amino acid peptides by linearizing the polar face of the receptor-binding region, which preserves peptide function without maintaining any primary sequence homology with the apoE receptor-binding region itself. Overall, 13 peptides were screened using in vitro assays of neuroinflammation and neuroprotection from excitotoxicity. […] The resulting smaller, 5-amino acid peptide increases the translational and therapeutic potential by reducing production cost, improving pharmacokinetics, and increasing CNS bioavailability. A comparison of the neuroprotective activity of CN-105 with VR-53, another pentapeptide from this library, as measured by LPS-induced inflammation from TNFα is shown in FIG. 1.

severe, contusive SCI = assay: Severe, contusive SCI: GFAP staining at injury epicenter; type: in vivo, mouse; conditions: 0.05 mg/kg before and after SCI; 14 days after severe SCI
Procedure: FIG. 4 is a series of microscopy images showing the spinal cord sections at the injury epicenter stained for glial fibrillary acidic protein (GFAP) in a mouse after a severe SCI.
In a separate experiment, we delivered CN-105 (0.05 mg/kg) before and after SCI. To determine the effect of CN-105 treatment on neuropathology 14 days after severe SCI, we stained spinal cord sections at the injury epicenter for glial fibrillary acidic protein (GFAP; FIG. 4), which labels astrocytes, including those that form the glial scar around the injury. In this approach, spared tissue can be differentiated from the lesion core by the presence (spared tissue) or absence (lesion core) of GFAP staining (Duncan et al., 2018).

[1] = tested on: moderate, contusive SCI in adult, female C57BL/6J mice; assay: Moderate, contusive SCI at T9: Basso Mouse Scale and von Frey hair test; type: in vivo
Procedure: FIG. 3 are graphs showing the locomotor performance recovery (via Basso Mouse Scale) in adult, female C57BL/6J mice after a moderate, incomplete SCI at the 9th thoracic vertebrae. The mice were subsequently treated with either 2.0 mg/kg CN-105 or a control vehicle intravenously 30 minutes post-injury, and then intraperitoneally (IP) at 3 hours, 6 hours, and then every 24 hours post-injury for three days. FIG. 3, panel A is a graph showing the number of consistent, weight-supported hindlimb steps at 21-days post-injury; and FIG. 3, panel B is a graph showing the number of animals capable of performing coordinated locomotion at 21-days post-injury.
To determine whether CN-105 can improve sensorimotor outcomes following a moderate, incomplete SCI, we conducted experiments in adult, female C57BL/6J mice. Here, we delivered CN-105 (2.0 mg/kg) or Vehicle at 30 minutes (intravenous, IV), at 3 hours and 6 hours (intraperitoneal, IP), then every 24 hours (IP) for three days following a moderate, contusive SCI at the level of the 9th thoracic vertebrae (T9). We tracked locomotor recovery using the Basso Mouse Scale (BMS) (Basso et al., 2006) and assessed for neuropathic pain or allodynia using the von Frey hair test.

acquired brain injury = conditions: in vivo; cited from earlier work
mixed glial culture = assay: LPS-induced TNFα release from mixed glia cells in vitro; type: cell-based
Text: FIG. 1 is a graph showing the LPS-induced TNFα release from mixed glia cells in vitro from treatments with the CN-105 peptide and a comparison pentapeptide, VR-53.
as §1

[2] = molecular target: α7 nicotinic acetylcholine receptors (Homo sapiens, UniProt P36544); conditions: cited from earlier work
[3] = Pharmacokinetic evaluation of radiolabeled CN-105 in uninjured male CD-1 mice; type: in vivo; conditions: single intravenous bolus 1.98 mg/kg
Procedure: FIG. 2, panel A is a graph showing the concentration of CN-105 in uninjured, male CD-1 mice after a single intravenous injection bolus dose of 1.98 mg/kg. FIG. 2, panel B is a graph showing the CN-105 retention in the brain and the spinal cord, calculated by dividing the concentration at 24 hours (C24) by the peak concentration (Cmax), 24 hours after a single intravenous injection bolus dose of 1.98 mg/kg. FIG. 2, panel C is a graph showing the total CN-105 exposure in the brain and the spinal cord, calculated using the area under the curve (AUC), for 48 hours after a single intravenous injection bolus dose of 1.98 mg/kg.
In collaboration with XenoBiotic Laboratories, Inc., we conducted a pharmacokinetic evaluation of radiolabled CN-105 in uninjured, male CD-1 mice. After a single intravenous bolus dose of CN-105 (1.98 mg/kg), peak concentration of CN-105 in the spinal cord occurred 30 minutes post injection (FIG. 2, panel A).
However, tissue retention of CN-105 at 24 hours (FIG. 2, panel B) and total exposure (FIG. 2, panel C) to CN-105 over 48 hours post injection was greatest in the spinal cord. Tissue retention at 24 hours post injection was quantified by dividing the CN-105 concentration at 24 hours (C24) by the peak CN-105 concentration (Cmax) and multiplying by 100.
The total exposure to CN-105 was calculated using the area under the curve (AUC) from the time of injection to 48 hours post injection (AUC0-48) and is expressed in nanogram equivalents*hour per gram. […] Increased CN-105 access to the spinal cord is consistent with greater passive permeability in the intact spinal cord (Winkler et al., 2012).

[4] = tested on: spinal cord transection in female Sprague-Dawley rats; assay: Spinal cord transection T9/T10: acute cystometry and body weight; type: in vivo
Procedure: FIG. 5, panel A is a graph showing the number of non-voiding bladder contractions during acute cystometry in urethane-anesthetized, female Sprague-Dawley rats that received spinal cord transection between the 9th and 10th thoracic vertebrae, followed by CN-105 (2 mg/kg; sci_cn105) or 0.9% saline (sci_saline) treatments at 30 minutes and 3 hours post injury by IV injection, and then every 24 hours by IP for 7 days.
FIG. 5, panel B is a graph showing the bladder capacity measured from a single-fill cystometric trial in urethane-anesthetized, female Sprague-Dawley rats that received spinal cord transection between the 9th and 10th thoracic vertebrae. Three baseline measurements were taken, and then three measurements were taken after administration of CN-105 (2 mg/kg; cn105).
We conducted terminal acute experiments in urethane-anesthetized, female Sprague-Dawley rats to quantify the chronic and acute effects of CN-105 on urodynamic function. Rats (n=6) received spinal cord transection (TX) at T9/T10 followed by CN-105 (2.0 mg/kg) or 0.9% saline treatment at 30 min and 3 hours (IV), then every 24 hours (IP) for 7 days post-injury. Collection of body weight and void volumes occurred 2-3 times daily during manual bladder expression throughout the duration of the study. For acute cystometry experiments, we placed a catheter into the bladder dome to measure pressure and an electromyography paddle on the EUS to measure muscle activity. During a single-fill cystometric trial, we infused the bladder with saline at a constant rate (54-84 ml/hr) until a distension-evoked bladder contraction voided urine or until overflow incontinence occurred. Following 3 baseline cystometric trials, we performed 3 trials after administration of CN-105.

[5] = SCI rats, 2.0 mg/kg chronic treatment, cystometry

Sequence of α7 nicotinic acetylcholine receptors (P36544 23-502): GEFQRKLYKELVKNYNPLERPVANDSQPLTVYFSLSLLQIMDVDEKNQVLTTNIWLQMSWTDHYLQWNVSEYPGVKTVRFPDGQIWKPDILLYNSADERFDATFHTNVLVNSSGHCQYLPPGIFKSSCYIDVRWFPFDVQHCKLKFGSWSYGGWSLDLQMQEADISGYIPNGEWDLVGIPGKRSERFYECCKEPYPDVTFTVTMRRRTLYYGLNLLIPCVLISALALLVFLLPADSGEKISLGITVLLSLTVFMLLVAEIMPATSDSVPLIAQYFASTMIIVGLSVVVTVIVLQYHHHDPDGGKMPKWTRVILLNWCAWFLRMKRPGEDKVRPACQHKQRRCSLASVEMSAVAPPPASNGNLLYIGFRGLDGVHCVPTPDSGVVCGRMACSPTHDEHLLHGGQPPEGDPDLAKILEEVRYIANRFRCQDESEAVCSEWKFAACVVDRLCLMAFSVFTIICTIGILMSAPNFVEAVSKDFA

## Ac-ASHLRKLRKRLL-NH2 [AL-10-1]
Mixed neuronal culture
  Neuroprotection (reduction in neuronal LDH release): −6.21%

## Ac-RARRL-NH2 [RL-S-2]
Mixed neuronal culture
  Neuroprotection (reduction in neuronal LDH release): −5.23%

## Ac-RHKKL-NH2 [RL-S-1]
Mixed neuronal culture
  Neuroprotection (reduction in neuronal LDH release): −2.85%

## Ac-RHKRR-NH2 [RR-S-1]
Mixed neuronal culture
  Neuroprotection (reduction in neuronal LDH release): 7.5%

## Ac-RSKKL-NH2 [RL-S-3]
Mixed neuronal culture
  Neuroprotection (reduction in neuronal LDH release): −20.80%

## Ac-RSKRR-NH2 [RR-S-2]
Mixed neuronal culture
  Neuroprotection (reduction in neuronal LDH release): 0.08%

## Ac-VARKL-NH2 [VL-S-1]
Mixed neuronal culture
  Neuroprotection (reduction in neuronal LDH release): 24.48%

## Ac-VARRL-NH2 [VL-S-3]
Mixed neuronal culture
  Neuroprotection (reduction in neuronal LDH release): 11.50%

## Ac-VSKKR-NH2 [VR-54]
Mixed neuronal culture
  Neuroprotection (reduction in neuronal LDH release): −15.91%

## Ac-VSKRR-NH2 [VR-53]
Mixed neuronal culture
  Neuroprotection (reduction in neuronal LDH release): 7.03%

## Ac-VSRKR-NH2 [VR-52]
Mixed neuronal culture
  Neuroprotection (reduction in neuronal LDH release): 12.63%

## Ac-VSRRR-NH2 [CN-105]
severe, contusive SCI
  Lesion size and tissue damage (GFAP staining): appeared to reduce the lesion size and tissue damage
Mixed neuronal culture
  Neuroprotection (reduction in neuronal LDH release): 19.14%
[1]; 2.0 mg/kg
  Sensory function / allodynia (von Frey hair test): trend toward improved sensory function
[1]; 2.0 mg/kg IV 30 min, IP 3 h, 6 h, then every 24 h for three days, 21 days after injury, p<0.05
  Animals capable of consistently taking weight-supported steps (BMS): significantly more animals
[1]; 2.0 mg/kg, 21 days after injury, p<0.05
  Animals performing coordinated locomotion (BMS): significantly more animals
Acquired brain injury
  Brain exposure relative to previous peptides: up to five times higher than previous peptides
  Histological and behavioral outcomes following acquired brain injury: improves both histological and behavioral outcomes
Mixed glial culture
  Suppression of LPS-induced inflammation (TNFα): suppress LPS-induced inflammation
[2]
  Binding to α7 nicotinic acetylcholine receptors: binds
[3]; 0-48 hours
  Total exposure (AUC0-48), spinal cord vs brain: spinal cord had greater total exposure to CN-105 than the brain
[3]; 24 hours post injection
  Tissue retention at 24 hours (C24/Cmax x 100), spinal cord vs brain: spinal cord retained a higher percentage of CN-105 than the brain
[3]; spinal cord
  Time of peak concentration in the spinal cord: 30 min
[4]; 2.0 mg/kg IV 30 min and 3 h, then IP every 24 h for 7 days
  Post-injury weight loss: prevented post-injury weight loss
[4]; [5]
  Bladder capacity (BC): 11.83 ± 2.00 mL
  Non-voiding contractions (NVCs): 8.0±2.48
  Voiding efficiency (VE): 3.31±1.83%
[4]; acute dosing 2 mg/kg in chronically treated rats, p<0.05
  Bladder capacity after acute dosing: may decrease bladder capacities
[4]; extended treatment, p<0.05
  Neurogenic detrusor overactivity (NDO), post-hoc analysis: may decrease NDO

Reference: patent US20240350578A1, “FUNCTIONAL OUTCOMES AFTER SPINAL CORD INJURY” (priority 2023, published 2024)
